Assay type in all cases: biochemical
The target in assay [1] is JAK1 (Homo sapiens (Human), UniProt P23458). Briefly: Enzyme assay (Assay Example^a 1), JAK1. The conditions noted are these: ATP 100 μM.
Assay [2] deals with Tyk2 (Homo sapiens (Human), UniProt P29597). Briefly: Enzyme assay (Assay Example^a 1), Tyk2. The conditions noted are these: ATP 100 μM.
For assay [3], the target named is JAK2 (Homo sapiens (Human), UniProt O60674). Briefly: Enzyme assay (Assay Example^a 1), JAK2. The conditions noted are these: ATP 100 μM.
For assay [4], the target named is JAK3 (Homo sapiens (Human), UniProt P52333). The experiment in a line: Enzyme assay (Assay Example^a 1), JAK3.
Chain of JAK3 (P52333 whole entry): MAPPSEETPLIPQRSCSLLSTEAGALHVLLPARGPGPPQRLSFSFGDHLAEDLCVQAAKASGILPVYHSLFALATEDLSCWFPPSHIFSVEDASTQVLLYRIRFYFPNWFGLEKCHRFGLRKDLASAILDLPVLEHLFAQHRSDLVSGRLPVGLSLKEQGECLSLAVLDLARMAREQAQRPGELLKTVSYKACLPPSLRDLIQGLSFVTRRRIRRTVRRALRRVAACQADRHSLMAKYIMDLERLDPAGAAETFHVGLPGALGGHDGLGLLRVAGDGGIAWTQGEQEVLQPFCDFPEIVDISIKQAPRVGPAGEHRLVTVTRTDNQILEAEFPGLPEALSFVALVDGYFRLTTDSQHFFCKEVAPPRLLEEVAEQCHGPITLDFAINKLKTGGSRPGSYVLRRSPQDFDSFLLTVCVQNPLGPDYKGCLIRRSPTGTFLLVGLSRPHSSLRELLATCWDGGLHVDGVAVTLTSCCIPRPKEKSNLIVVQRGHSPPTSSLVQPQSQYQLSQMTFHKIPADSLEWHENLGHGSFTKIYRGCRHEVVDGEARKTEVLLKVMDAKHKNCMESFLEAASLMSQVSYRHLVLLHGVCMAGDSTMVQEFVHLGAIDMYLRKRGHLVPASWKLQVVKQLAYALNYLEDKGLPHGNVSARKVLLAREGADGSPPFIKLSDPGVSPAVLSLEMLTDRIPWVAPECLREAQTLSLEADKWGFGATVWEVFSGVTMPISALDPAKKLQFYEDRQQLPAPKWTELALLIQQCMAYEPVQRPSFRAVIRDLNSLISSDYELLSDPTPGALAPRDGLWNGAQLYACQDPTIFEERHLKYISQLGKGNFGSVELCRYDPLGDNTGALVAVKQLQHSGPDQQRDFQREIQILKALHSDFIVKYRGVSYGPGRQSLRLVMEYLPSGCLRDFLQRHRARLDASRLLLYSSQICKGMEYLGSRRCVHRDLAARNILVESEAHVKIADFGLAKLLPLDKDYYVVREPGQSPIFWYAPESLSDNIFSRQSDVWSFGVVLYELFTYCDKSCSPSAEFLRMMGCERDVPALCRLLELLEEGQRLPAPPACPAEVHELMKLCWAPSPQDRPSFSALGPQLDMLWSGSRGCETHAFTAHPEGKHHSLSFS

The results in this text go back to patent publication US9216999B2, “Substituted pyrrolo[2,3-h][1,6]naphthyridines and compositions thereof as JAK inhibitors” (priority 2011, dated 2015).

Where two headings read alike, the source gives them in different places.

Chain of Tyk2 (P29597 whole entry): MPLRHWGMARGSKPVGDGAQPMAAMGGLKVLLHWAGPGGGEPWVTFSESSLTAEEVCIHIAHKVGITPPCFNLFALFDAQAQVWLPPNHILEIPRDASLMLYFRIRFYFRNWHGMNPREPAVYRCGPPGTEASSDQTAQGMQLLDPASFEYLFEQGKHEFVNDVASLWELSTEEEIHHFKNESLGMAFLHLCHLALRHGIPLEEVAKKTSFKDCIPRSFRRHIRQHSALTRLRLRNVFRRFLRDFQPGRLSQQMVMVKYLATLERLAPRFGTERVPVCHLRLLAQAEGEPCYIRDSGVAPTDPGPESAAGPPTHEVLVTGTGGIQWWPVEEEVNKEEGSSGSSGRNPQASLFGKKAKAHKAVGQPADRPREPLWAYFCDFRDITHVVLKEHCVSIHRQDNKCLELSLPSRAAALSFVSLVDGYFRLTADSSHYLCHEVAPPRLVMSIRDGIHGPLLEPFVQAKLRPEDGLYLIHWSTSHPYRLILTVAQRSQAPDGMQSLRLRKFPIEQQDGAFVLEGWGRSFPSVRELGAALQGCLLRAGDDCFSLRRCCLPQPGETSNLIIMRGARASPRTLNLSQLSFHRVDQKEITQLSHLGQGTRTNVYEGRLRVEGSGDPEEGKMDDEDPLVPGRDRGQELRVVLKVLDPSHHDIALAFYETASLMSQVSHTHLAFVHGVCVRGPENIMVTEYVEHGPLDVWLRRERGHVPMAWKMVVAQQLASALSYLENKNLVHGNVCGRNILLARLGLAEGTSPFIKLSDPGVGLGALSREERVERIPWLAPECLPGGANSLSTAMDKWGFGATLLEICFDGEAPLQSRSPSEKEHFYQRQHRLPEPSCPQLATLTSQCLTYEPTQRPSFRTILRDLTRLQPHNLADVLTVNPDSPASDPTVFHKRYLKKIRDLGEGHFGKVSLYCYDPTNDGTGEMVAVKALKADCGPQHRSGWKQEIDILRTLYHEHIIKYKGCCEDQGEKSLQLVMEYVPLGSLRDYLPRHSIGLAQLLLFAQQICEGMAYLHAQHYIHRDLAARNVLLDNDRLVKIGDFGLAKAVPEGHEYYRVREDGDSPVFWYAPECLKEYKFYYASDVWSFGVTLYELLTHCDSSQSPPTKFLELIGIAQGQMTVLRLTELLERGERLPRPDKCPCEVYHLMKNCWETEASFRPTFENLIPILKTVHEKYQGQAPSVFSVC

In general, IC50 refers to the concentration that inhibits the measured activity by half. Regarding `CN(CCC#N)c1ccc(CN2CCC(c3nnn4cnc5[nH]ccc5c34)CC2)cc1` [compound 226, 3-[(4-{[4-(7H-pyrrolo[3,2-e][1,2,3]triazolo[1,5-c]pyrimidin-1-yl)piperidin-1-yl]methyl}phenyl)(methyl)amino]propanenitrile], the IC50 in assay [1] is 0.28 µM; in assay [2], above 1 µM; in assay [3] it was above 1 µM; in assay [4] (ATP 100 μM), above 1 µM.

With `FC1(F)Oc2ccc(CN3CCC(c4nnn5cnc6[nH]ccc6c45)CC3)cc2O1` [compound 227, 1-{1-[(2,2-Difluorobenzo[d][1,3]dioxol-5-yl)methyl]piperidin-4-yl}-7H-pyrrolo[3,2-e][1,2,3]triazolo[1,5-c]pyrimidine], the half-maximal inhibitory concentration (IC50) in assay [1] stood at 0.0025 µM; in assay [2] it was 0.57 µM; in assay [3], 0.021 µM; in assay [4] (ATP 100 μM), 0.079 µM.

On to `Clc1ccc(CN2CCC(c3nnn4cnc5[nH]ccc5c34)CC2)o1` [compound 228, 1-{1-[(5-chlorofuran-2-yl)methyl]piperidin-4-yl}-7H-pyrrolo[3,2-e][1,2,3]triazolo[1,5-c]pyrimidine], for which the IC50 in assay [1] came out at 0.0016 µM; in assay [2] it was 0.1 µM; in assay [3] it was 0.0044 µM; in assay [4] (ATP 100 μM), 0.17 µM.

Regarding `FC1(F)Oc2cccc(CN3CCC(c4nnn5cnc6[nH]ccc6c45)CC3)c2O1` [compound 229, 1-{1-[(2,2-difluorobenzo[d][1,3]dioxol-4-yl)methyl]piperidin-4-yl}-7H-pyrrolo[3,2-e][1,2,3]triazolo[1,5-c]pyrimidine], the IC50 in assay [1] is 0.039 µM; in assay [2], above 1 µM; in assay [3], 0.087 µM; in assay [4] (ATP 100 μM), above 1 µM.

On to `N#C/C(=C\N1CCC(c2nnn3cnc4[nH]ccc4c23)CC1)c1ccccc1` [compound 230, (Z)-3-[4-(7H-pyrrolo[3,2-e][1,2,3]triazolo[1,5-c]pyrimidin-1-yl)piperidin-1-yl]-2-phenylacrylonitrile], for which the IC50 was 0.035 µM in assay [1], above 1 µM in assay [2], 0.13 µM in assay [3] and above 1 µM in assay [4] (ATP 100 μM).

Consider `Clc1ccc(CN2CCC(c3nnn4cnc5[nH]ccc5c34)CC2)c(Cl)n1` [compound 231, 1-{1-[(2,6-dichloropyridin-3-yl)methyl]piperidin-4-yl}-7H-pyrrolo[3,2-e][1,2,3]triazolo[1,5-c]pyrimidine], for which the IC50 in assay [1] turned out to be 0.0043 µM; in assay [2], 0.61 µM; in assay [3] it was 0.023 µM; in assay [4] (ATP 100 μM), 0.23 µM.

`Brc1cc(CN2CCC(c3nnn4cnc5[nH]ccc5c34)CC2)sc1Br` [compound 233, 1-{1-[(4,5-dibromothiophen-2-yl)methyl]piperidin-4-yl}-7H-pyrrolo[3,2-e][1,2,3]triazolo[1,5-c]pyrimidine]: the IC50 in assay [1] is 0.021 µM; in assay [2], above 1 µM; in assay [3], 0.071 µM; in assay [4] it was above 1 µM.

For the compound `c1cc2c(ncn3nnc(C4CCN(Cc5cnc(N6CCOCC6)s5)CC4)c23)[nH]1` [compound 234, 4-(5-{[4-(7H-pyrrolo[3,2-e][1,2,3]triazolo[1,5-c]pyrimidin-1-yl)piperidin-1-yl]methyl}thiazol-2-yl)morpholine], the IC50 in assay [1] is 0.36 µM; in assay [2], above 1 µM; in assay [3], 0.88 µM; in assay [4] (ATP 100 μM), above 1 µM.

For `Brc1csc(CN2CCC(c3nnn4cnc5[nH]ccc5c34)CC2)c1` [compound 237, 1-{1-[(4-bromothiophen-2-yl)methyl]piperidin-4-yl}-7H-pyrrolo[3,2-e][1,2,3]triazolo[1,5-c]pyrimidine], the concentration for half-maximal inhibition (IC50) in assay [1] is 0.0015 µM; in assay [2], above 1 µM; in assay [3], 0.01 µM; in assay [4] (ATP 100 μM), 0.41 µM.

Consider `Brc1ccc(CN2CCC(c3nnn4cnc5[nH]ccc5c34)CC2)s1` [compound 238, 1-{1-[(5-bromothiophen-2-yl)methyl]piperidin-4-yl}-7H-pyrrolo[3,2-e][1,2,3]triazolo[1,5-c]pyrimidine], for which the IC50 in assay [1] stood at 0.00079 µM; in assay [2], 0.11 µM; in assay [3] it was 0.0046 µM; in assay [4] (ATP 100 μM), 0.055 µM.
